One data set addresses T1, PARP1 (Homo sapiens, UniProt P09874).
T1 construct: Recombinant full length 6HIS tagged PARP1 protein; 6HIS
The data set can be described thus: PARP fluorescence anisotropy binding assay, PARP1. The conditions noted are these: recombinant full length 6HIS tagged PARP1. (In general: Polarisation of emitted light reports the rotation of a fluorescent probe.)

The next data set addresses T2, PARP3 (Homo sapiens, UniProt Q9Y6F1).
T2 construct: Recombinant full length PARP3 protein
T2 sequence (Q9Y6F1 1-533): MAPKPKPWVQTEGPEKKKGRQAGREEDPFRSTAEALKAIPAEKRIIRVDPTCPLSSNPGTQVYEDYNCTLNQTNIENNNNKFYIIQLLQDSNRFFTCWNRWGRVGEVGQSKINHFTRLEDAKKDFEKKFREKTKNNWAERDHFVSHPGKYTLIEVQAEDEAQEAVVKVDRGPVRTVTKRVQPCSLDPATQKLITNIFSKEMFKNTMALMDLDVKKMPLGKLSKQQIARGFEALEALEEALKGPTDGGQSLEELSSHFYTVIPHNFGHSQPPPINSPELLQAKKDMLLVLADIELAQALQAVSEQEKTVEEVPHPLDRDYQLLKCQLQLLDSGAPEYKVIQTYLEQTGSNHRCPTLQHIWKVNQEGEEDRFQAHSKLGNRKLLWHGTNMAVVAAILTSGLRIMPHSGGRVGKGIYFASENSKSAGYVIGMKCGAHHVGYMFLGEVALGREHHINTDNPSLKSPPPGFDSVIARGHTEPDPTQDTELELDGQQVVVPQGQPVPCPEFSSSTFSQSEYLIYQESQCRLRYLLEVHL
As to the kind of experiment: PARP fluorescence anisotropy binding assay, PARP3. Particulars: recombinant full length PARP3. The source says: (§1) PARP Fluorescence Anisotropy Binding Assays

In a further data set the target is PARP5a (Homo sapiens, UniProt O95271). The data set can be described thus: PARP fluorescence anisotropy binding assay, PARP5a binding domain. Particulars: recombinant PARP5a binding domain.
Chain of PARP5a (O95271 1112-1317): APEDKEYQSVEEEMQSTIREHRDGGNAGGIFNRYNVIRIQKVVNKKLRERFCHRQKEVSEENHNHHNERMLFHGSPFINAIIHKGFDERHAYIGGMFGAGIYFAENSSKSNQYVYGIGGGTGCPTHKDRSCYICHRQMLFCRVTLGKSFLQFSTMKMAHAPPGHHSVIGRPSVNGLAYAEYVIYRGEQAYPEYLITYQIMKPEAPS
Excerpt: as §1

Another data set has as its target T3, PARP6 (Homo sapiens, UniProt Q2NL67).
T3 construct: Recombinant full length GST tagged PARP6 protein; GST
As to the kind of experiment: PARP fluorescence anisotropy binding assay, PARP6. Particulars: recombinant full length GST tagged PARP6. The procedure: as §1
Recombinant full length GST tagged PARP6 protein was diluted to 160 nM with 50 mM Tris pH 8, 0.001% Triton X100, 10 mM MgCl2, 150 mM NaCl and incubated for four hours with an equivalent volume of 6 nM fluorescent probe diluted with 50 mM Tris pH 8, 0.001% Triton X100, 10 mM MgCl2, 150 mM NaCl. The final DMSO concentration of the probe was kept below 1% (v/v).
Fluorescence anisotropy of the probe when bound to the proteins was measured using a BMG Pherastar FSX© in the presence of test compounds or solvent control and the effect on anisotropy determined. % inhibition values for different test compound concentrations were calculated and fitted to a four parameter logistic plot in order to determine the IC50 value. Where necessary, the compound Ki can be determined from the IC50 value using a Munson Rodbard equation defined in Anal Biochem. 1980 Sep. 1; 107(1):220-39 and is based on the known KD of the probe binding to the relevant PARP protein

A further data set has as its target hERG (Homo sapiens, UniProt Q12809). The data set can be described thus: hERG inhibition. The source says:
It is well known that blockade of the cardiac ion channel coded by human ether-n-gogo-related gene (hERG) is a risk factor in drug discovery and development. Blockage of hERG can cause safety problems such as cardiac arrhythmia. Advantageously, the compounds of Formula I have low hERG activity.

The test system of another data set is BRCA2 (−/−) DLD1 cells. As to the kind of experiment: PARP proliferation assay (7 day compound dosing), BRCA2 (−/−) DLD1. The conditions noted are these: BRCA2 −/− DLD-1 cells, 7 day dosing, read-out: BRCA2 −/− DLD-1 prolif. 7 d IC50. The class given is cell-based. The procedure: (§2) PARP Proliferation Assay (7 Day Compound Dosing)
(§3) DLD1 and BRCA2 (−/−) DLD1 cells were harvested to a density of 5000 cells/ml and 2.5E4 cells/ml respectively in complete media, 40 μL/well seeded into 384-well plates (Greiner, Kremsmunster, Austria; 781090) using a Multidrop Combi then incubated at 37° C., 5% CO2 overnight. Next day (Day 1) using a Multidrop Combi add sytoxgreen (5 ul, 2 uM) and saponin (10 ul, 0.25% stock) to a day 0 plate, seal the plate using a black adhesive lid and incubate for >3 h at rt. Cells were imaged using Cell Insight (Thermo Fisher) fitted with a 4× objective. Test compounds are added using an Echo 555 and placed in incubator maintained at 37° C., 5% CO2 and incubated for 7 days. On Day 8 add sytox green (5 ul, 2 uM) and then saponin (10 ul, 0.25% stock) to plates, seal the plate using a black adhesive lid and incubate for >3 h at rt. Read all cells on the Cell Insight with 4× Objective. The rate of proliferation is determined in Genedata by assessing the total cell number output from the Cell Insight for Day 0 and Day 8 plates.

The subject of the next data set is MDR1 and BCRP. The data set can be described thus: In vitro human transporter efflux (MDCK-MDR1-BCRP). The class given is in vitro ADME. The conditions noted are these: human, pH 7.4, Papp(B to A)/Papp(A to B), 1 or 0.1 μM, 90-min incubation.
A further data set concerns the target T4, PARP2 (Homo sapiens, UniProt Q9UGN5).
T4 construct: Recombinant full length PARP2 protein
The data set can be described thus: PARP fluorescence anisotropy binding assay, PARP2. The conditions noted are these: recombinant full length PARP2. Here is the method:
as §1
Recombinant full length PARP2 protein was diluted to 6 nM with 50 mM Tris pH 8, 0.001% Triton X100, 10 mM MgCl2, 150 mM NaCl and incubated for four hours with an equivalent volume of 2 nM fluorescent probe diluted with 50 mM Tris pH 8, 0.001% Triton X100, 10 mM MgCl2, 150 mM NaCl. The final DMSO concentration of the probe was kept below 1% (v/v).
Fluorescence anisotropy of the probe when bound to the proteins was measured using a BMG Pherastar FSX© in the presence of test compounds or solvent control and the effect on anisotropy determined. % inhibition values for different test compound concentrations were calculated and fitted to a four parameter logistic plot in order to determine the IC50 value.

Another data set relates to DLD1 cells. The data set can be described thus: PARP proliferation assay (7 day compound dosing), WT DLD1. The conditions noted are these: Homo sapiens, 168 h; WT DLD-1 cells, 7 day dosing; read-out: WT DLD-1 prolif. 7 d IC50. The class given is cell-based. Here is the method:
as §2, §3

The subject of data set [1] is MDCKII cells expressing MDR1 and BCRP. The data set can be described thus: In vitro human transporter efflux (MDCK-MDR1-BCRP). The class given is in vitro ADME. Particulars: Papp(B to A)/Papp(A to B), 1 or 0.1 μM, 90-min incubation.
Method: In Vitro Human Transporter Efflux
MDCKII cells expressing MDR1 and BCRP were seeded onto polyethylene membranes in 96-well Transwell insert systems at a density to form a confluent cell monolayer. […] The final percent volume of the organic solvent was less than 1%. Permeation of the test compounds from A to B direction and from B to A direction was determined over a 90-min incubation at 37° C. and 5% CO2 with a relative humidity of 95%. At the end of the incubation, samples from the apical and basolateral side were taken and then precipitated with cold acetonitrile containing internal standard. After centrifugation at 4000 rpm, the supernatant was diluted with 0.1% formic acid aqueous solution and quantified by LC-MS/MS. The integrity of the cell monolayers was confirmed by using the marker Lucifer yellow.
(1) The efflux ratio was calculated using the following equation Efflux ratio=Papp(B to A)/Papp(A to B)
(2) where dCr/dt is the cumulative concentration of the compound in the receiver chamber as a function of time (in μM/s); Vr is the solution volume in the receiver chamber (0.1 ml on the apical side and 0.3 ml on the basolateral side); A is the surface area for the transport, that is, 0.11 cm2 for the area of the monolayer; and CO is the initial concentration in the donor chamber (in μM).

pIC50: −log10 of the molar value. Where two headings read alike, the source gives them in different places. Some results are limits rather than exact numbers.

Usually efflux ratio stands for the permeability from basolateral to apical divided by that in the opposite direction, in the common usage.

T3 sequence (Q2NL67 whole entry): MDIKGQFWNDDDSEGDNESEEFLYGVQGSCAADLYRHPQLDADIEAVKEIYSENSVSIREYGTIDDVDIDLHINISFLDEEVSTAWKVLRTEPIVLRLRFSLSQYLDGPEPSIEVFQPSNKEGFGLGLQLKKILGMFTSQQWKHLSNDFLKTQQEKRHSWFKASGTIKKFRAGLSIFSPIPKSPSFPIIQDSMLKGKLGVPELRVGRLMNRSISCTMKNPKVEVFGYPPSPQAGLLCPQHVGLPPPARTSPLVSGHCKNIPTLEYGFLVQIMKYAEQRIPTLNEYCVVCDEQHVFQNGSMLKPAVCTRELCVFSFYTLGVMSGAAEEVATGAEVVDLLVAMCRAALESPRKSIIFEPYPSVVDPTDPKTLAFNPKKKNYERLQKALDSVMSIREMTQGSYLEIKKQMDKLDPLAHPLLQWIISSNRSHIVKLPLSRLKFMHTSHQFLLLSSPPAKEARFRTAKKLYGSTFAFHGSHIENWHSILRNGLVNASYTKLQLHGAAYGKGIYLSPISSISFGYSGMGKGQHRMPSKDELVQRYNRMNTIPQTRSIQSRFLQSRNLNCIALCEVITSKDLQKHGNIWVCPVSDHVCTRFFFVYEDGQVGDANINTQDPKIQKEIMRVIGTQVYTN
T4 sequence (Q9UGN5 whole entry): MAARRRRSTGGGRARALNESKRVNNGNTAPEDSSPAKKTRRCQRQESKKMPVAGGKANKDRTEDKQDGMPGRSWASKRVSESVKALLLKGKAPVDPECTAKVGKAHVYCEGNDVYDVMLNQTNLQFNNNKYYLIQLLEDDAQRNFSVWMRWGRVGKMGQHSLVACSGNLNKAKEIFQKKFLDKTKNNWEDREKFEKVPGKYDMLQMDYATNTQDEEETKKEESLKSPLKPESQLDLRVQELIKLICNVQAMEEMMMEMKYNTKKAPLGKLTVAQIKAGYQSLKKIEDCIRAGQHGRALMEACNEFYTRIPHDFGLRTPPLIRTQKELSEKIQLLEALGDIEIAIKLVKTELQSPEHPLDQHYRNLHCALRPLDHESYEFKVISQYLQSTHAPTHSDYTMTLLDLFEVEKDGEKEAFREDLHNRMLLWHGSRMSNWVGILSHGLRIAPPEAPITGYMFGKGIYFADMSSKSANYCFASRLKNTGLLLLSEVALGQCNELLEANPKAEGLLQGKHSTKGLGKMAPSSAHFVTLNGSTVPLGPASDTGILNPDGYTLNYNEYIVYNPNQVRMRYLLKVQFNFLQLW
Chain of hERG (Q12809 whole entry): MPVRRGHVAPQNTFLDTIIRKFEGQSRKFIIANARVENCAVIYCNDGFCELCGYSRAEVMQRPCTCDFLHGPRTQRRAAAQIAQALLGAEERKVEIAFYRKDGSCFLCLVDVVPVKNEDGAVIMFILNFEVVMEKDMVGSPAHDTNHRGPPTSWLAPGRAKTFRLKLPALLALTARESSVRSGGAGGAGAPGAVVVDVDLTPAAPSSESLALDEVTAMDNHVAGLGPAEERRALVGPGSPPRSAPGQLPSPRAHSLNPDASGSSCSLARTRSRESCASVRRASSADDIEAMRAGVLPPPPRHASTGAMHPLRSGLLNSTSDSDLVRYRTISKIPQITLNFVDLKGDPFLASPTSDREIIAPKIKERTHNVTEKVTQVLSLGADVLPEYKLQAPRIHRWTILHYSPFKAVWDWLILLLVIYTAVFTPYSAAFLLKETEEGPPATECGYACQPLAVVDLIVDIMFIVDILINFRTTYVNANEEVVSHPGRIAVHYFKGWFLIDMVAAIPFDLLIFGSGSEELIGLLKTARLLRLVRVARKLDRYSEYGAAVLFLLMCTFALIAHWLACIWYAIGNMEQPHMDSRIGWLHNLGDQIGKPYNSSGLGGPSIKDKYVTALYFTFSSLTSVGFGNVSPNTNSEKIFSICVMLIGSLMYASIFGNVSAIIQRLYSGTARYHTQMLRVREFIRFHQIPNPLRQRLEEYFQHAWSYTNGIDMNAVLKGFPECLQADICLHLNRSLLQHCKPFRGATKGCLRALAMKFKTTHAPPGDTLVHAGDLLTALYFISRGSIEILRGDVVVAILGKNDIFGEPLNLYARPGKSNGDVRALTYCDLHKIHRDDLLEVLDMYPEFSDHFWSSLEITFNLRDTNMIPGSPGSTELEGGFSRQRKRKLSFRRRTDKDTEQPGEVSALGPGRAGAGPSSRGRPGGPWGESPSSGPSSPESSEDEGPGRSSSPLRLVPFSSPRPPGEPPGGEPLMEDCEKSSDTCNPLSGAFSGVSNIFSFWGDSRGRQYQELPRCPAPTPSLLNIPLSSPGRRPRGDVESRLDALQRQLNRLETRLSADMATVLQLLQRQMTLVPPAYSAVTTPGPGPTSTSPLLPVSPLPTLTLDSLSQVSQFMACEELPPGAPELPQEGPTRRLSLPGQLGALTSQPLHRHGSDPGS
T1 sequence (P09874 whole entry): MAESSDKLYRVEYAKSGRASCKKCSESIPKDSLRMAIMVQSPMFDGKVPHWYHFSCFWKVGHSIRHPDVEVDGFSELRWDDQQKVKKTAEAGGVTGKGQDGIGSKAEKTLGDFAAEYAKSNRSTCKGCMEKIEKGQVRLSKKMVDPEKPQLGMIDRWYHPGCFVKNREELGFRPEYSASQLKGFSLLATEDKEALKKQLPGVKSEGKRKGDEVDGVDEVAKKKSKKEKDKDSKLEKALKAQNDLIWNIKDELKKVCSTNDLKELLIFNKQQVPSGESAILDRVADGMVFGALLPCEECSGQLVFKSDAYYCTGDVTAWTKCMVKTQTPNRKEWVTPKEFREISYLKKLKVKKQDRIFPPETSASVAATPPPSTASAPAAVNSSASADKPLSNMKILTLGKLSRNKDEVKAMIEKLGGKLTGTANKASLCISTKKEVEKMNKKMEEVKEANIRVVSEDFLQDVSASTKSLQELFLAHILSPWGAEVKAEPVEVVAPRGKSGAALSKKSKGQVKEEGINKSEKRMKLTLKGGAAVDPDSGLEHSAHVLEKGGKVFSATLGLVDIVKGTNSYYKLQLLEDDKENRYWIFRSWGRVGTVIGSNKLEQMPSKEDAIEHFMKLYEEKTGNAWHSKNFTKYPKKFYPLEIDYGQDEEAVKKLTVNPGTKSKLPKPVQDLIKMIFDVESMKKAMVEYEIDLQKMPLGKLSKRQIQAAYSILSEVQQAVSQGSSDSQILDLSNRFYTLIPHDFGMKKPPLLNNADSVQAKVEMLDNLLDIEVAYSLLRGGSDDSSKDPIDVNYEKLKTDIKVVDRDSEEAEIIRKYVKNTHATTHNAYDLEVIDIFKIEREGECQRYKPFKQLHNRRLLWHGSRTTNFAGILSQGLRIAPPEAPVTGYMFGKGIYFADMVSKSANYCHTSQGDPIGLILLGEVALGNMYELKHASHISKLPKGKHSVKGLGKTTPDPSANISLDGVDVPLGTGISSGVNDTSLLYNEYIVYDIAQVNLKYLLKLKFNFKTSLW
Method for PARP1: Recombinant full length 6HIS tagged PARP1 protein was diluted to 6 nM with 50 mM Tris pH 8, 0.001% Triton X100, 10 mM MgCl2, 150 mM NaCl and incubated for four hours with an equivalent volume of 2 nM fluorescent probe diluted with 50 mM Tris pH 8, 0.001% Triton X100, 10 mM MgCl2, 150 mM NaCl. The final DMSO concentration of the probe was kept below 1% (v/v).

On to `CNC(=O)c1ccc(N2CCN(Cc3ccc4nc(C(C)F)c(=O)[nH]c4c3F)CC2)c(F)n1` (single isomer, unassigned) [Example 12, 6-fluoro-5-[4-[[5-fluoro-2-[(1S OR 1R)-1-fluoroethyl]-3-oxo-4H-quinoxalin-6-yl]methyl]piperazin-1-yl]-N-methyl-pyridine-2-carboxamide], for which the pIC50 is 7.82 at PARP1; 4.07 at PARP3; less than 4.00 at PARP5a; less than 4.00 on PARP6; less than 4.40 on hERG; 8.10 in the data set with BRCA2 (−/−) DLD1 cells. The efflux ratio at 90 min with MDR1 and BCRP turned out to be 4.2.

For the compound `CNC(=O)c1ccc(N2CCN(Cc3ccc4nc(C(C)F)c(=O)[nH]c4c3F)CC2)c(F)n1` (single isomer, unassigned) [Example 13, 6-fluoro-5-[4-[[5-fluoro-2-[(1S OR 1R)-1-fluoroethyl]-3-oxo-4H-quinoxalin-6-yl]methyl]piperazin-1-yl]-N-methyl-pyridine-2-carboxamide], the pIC50 on PARP1 is 8.05; at PARP2, less than 4.00; at PARP3 it was 4.21; at PARP5a, less than 4.00; at PARP6, less than 4.00; on hERG, less than 4.40. For the same compound, the pIC50 with BRCA2 (−/−) DLD1 cells is 7.72; in the data set with DLD1 cells, 4.66. Besides, the “MDCK-MDR1-BCRP Efflux Ratio” value in [1] came to 3.0.

In the case of `CNC(=O)c1ccc(N2CCN(Cc3ccc4nc(C)c(=O)[nH]c4c3Cl)CC2)c(F)n1` [Example 17, 5-[4-[(5-chloro-2-methyl-3-oxo-4H-quinoxalin-6-yl)methyl]piperazin-1-yl]-6-fluoro-N-methyl-pyridine-2-carboxamide], the pIC50 was less than 4.00 on PARP2; less than 4.00 at PARP3; less than 4.00 on PARP5a; less than 4.00 at PARP6; less than 4.40 at hERG; 5.98 with BRCA2 (−/−) DLD1 cells (Homo sapiens, DLD-1, 168 h). For the same compound, the pIC50 with DLD1 cells was less than 5.00.

Turning to `CCc1nc2ccc(CN3CCN(c4ccc(C(=O)NC)nc4)CC3)c(Cl)c2[nH]c1=O` [Example 10, 5-[4-[(5-chloro-2-ethyl-3-oxo-4H-quinoxalin-6-yl)methyl]piperazin-1-yl]-N-methyl-pyridine-2-carboxamide], the pIC50 was less than 4.00 at PARP2; less than 4.00 at PARP3; less than 4.00 on PARP5a; less than 4.00 at PARP6; less than 4.40 on hERG; less than 4.52 with BRCA2 (−/−) DLD1 cells (Homo sapiens, DLD-1, 168 h). Moreover, in the data set on DLD1 cells, the pIC50 was less than 4.52.

On to `CNC(=O)c1ccc(N2CCN(Cc3ccc4nc(C(C)F)c(=O)[nH]c4c3F)CC2)c(C)n1` (single isomer, unassigned) [Example 14, 5-[4-[[5-fluoro-2-[(1S OR 1R)-1-fluoroethyl]-3-oxo-4H-quinoxalin-6-yl]methyl]piperazin-1-yl]-N,6-dimethyl-pyridine-2-carboxamide], for which, in the data set on MDR1 and BCRP, the efflux ratio at 90 min is 3.7.

These data come from US12421208B2, “Chemical compounds” (ASTRAZENECA AB, priority 2020, dated 2025).
